Results as given in PMC9180926, “Discovery of Novel 3-Hydroxyquinazoline-2,4(1H,3H)-Dione Derivatives: A Series of Metal Ion Chelators with Potent Anti-HCV Activities” (International Journal of Molecular Sciences, 2022).

Experiments:
[1] = Metal ion chelation assay using UV-Vis spectrophotometry; assay type: physicochemical
Text: The chelation rules of the 3-hydroxyquinazoline-2,4(1H,3H)-diones with magnesium ions were explored by UV-Vis spectrophotometry, which was widely used to study the binding properties of compounds with metal ions in vitro [56, 57, 58]. For the sake of eliminating the interference of heteroaryl groups on the determination of metal ion chelation, the representative compound 21e with phenyl group substituted at the C-7 position was selected to study its chelation ability with Mg^2+ under different conditions. […] This is probably because compound 21e mainly exists in the free molecular state with the N-hydroxyl group protonated in methanol, which is difficult to chelate with Mg^2+. Intriguingly, after the introduction of 5 mm NaOAc to the methanol solution containing 21e, the effect of MgCl2 on the absorbance of the system totally changed (Figure 5B). […] Remarkably, merely 20 μM MgCl2 was able to increase the absorbance by more than 0.5. […] A reasonable logic is that the addition of NaOAc raised the pH of the methanol solution, resulting in partial ionization of compound 21e at the N-hydroxyl group. Subsequently, 21e in the ionic state formed a chelation complex with Mg^2+, which increased the absorbance of the solution.
With the aim of verifying whether 21e has the ability to chelate with Mg^2+ in the ionic state, we further investigated the influence of various concentrations of NaOAc on the differential UV-Vis spectra caused by the addition of MgCl2. […] Moreover, the magnitude of the variation in the spectrum is proportional to the concentration of NaOAc. […] The comparison between different UV-Vis spectra also verified that compound 21e could chelate with Mg^2+ in the N-hydroxyl deprotonated form rather than the free molecular state.
2 mL of methanol solution containing the components in the sample or control group (Table 4) was added to a quartz cuvette (BQ-114-2, Chongqing Xinweier Glass Co., Ltd., Chongqing, China). The absorbance at 200–400 nm was scanned by a UV-Vis spectrophotometer (Agilent Cary 60, Agilent Technologies, Santa Clara, CA, USA), and the blank methanol was used for baseline calibration. The absorbance of the control group was subtracted from that of the sample group at the corresponding wavelength to obtain the differential UV-Vis spectra, which were used to analyze the chelating property of the compound with Mg^2+.

[2] = Cytotoxicity assay (CCK-8) on replicon cells; assay type: cell-based; settings: human, HCV 1b replicon cells (Huh-7.5.1); 50% cytotoxic concentration; CCK-8, HCV 1b replicon cells, 72 h

O=c1[nH]c2cc(-c3ccccc3)ccc2c(=O)n1O [21e, 3-Hydroxy-7-phenylquinazoline-2,4(1H,3H)-dione]
absorbance difference at 254 nm between control group and sample group ([1]; 50 μM compound in methanol, no NaOAc, MgCl2 up to 640 μM): no more than 0.1
increase of absorbance at 254 nm ([1]; 50 μM compound, 80 μM MgCl2, 200 μM to 5 mm NaOAc in methanol): 0.8–1.2
increase of absorbance at 254 nm ([1]; 50 μM compound, 5 mm NaOAc in methanol, 20 μM MgCl2): more than 0.5
Mg^2+ concentration at which absorbance change reaches equilibrium ([1]; 50 μM compound, 5 mm NaOAc in methanol, 254 nm): about 400 μM
CC50 at 72 h [2]: 5.4 ± 0.6 µM
